Experimental data taken from patent publication US11897918B2, “Compositions and methods to increase production” (priority 2014, dated 2024).

How the values were obtained:
[1] = test system: H3N2 strain IVR-165; format: cell-based, influenza H3N2; conditions: concentrations as low as 0.05 or even 0.01 μM
[2] = test system: IP10 and IFNB1; format: cell-based
[3] = test system: influenza in MDCK 33016PF cells; format: cell-based
[4] = test system: B/Massachusetts/02/2012; experiment: Ambr 250 mL bioreactor, B strain; format: cell-based, influenza B
Protocol: FIG. 13 provides a graph showing HA yields in the B strain tested with BYF589 at concentrations as indicated.
FIG. 14 provides a graph showing HA yields in the B strain tested with AFZ077 at concentrations as indicated.
The results were confirmed using 3 different viruses (a high-, medium-, and poor-expressing strains). […] To confirm these findings in a larger-scale system, TD Ambr™ 250 mL bioreactors were employed. Both of the lead compounds (as well as DMSO alone as negative control, and, no compound/no DMSO as double-negative control) were tested with a high- and low-expressing strains to determine if the observed enhancement in the small-scale cultures can be reproduced in a larger-scale system. The following parameters were used: Spent DM134:Fresh PFM (1:3); Virus Strains were A/Victoria/361/2011 (IVR-165) and B/Massachusetts/02/2012; MOI was 10^−5 for A/Victoria IVR-165 and 10^−4 for B/Massachusetts; ICD: 2.0e6-3.0e6 cells/mL; N-1 Process: 1B (no Medium Exchange); and, Harvest Time was 65-72 hours post-infection. HA yields were measured by two methods: RP-HPLC and HA-ELISA. […] Note that the error bars represent one standard deviation from the mean, to illustrate variability of the HA-ELISA assay between assay repeats.

[5] = test system: influenza H3N2 strain IVR-165 (A/Victoria/361/2011); format: cell-based
[6] = 0 and 60 hr, mass spec
[7] = test system: A/Victoria/361/2011 (IVR-165) (high-expressing); experiment: ambr15 mini-bioreactor and shake flask comparison, A strain; format: cell-based, influenza A H3N2; conditions: CDM and DM134 media, shake flasks and 15 ml bioreactors
[8] = test system: HEK293 Freestyle cells; experiment: Recombinant protein expression in HEK293 Freestyle cells; format: cell-based; conditions: 70 nM; proteins with a yield of about ≤4 mg/L
Protocol: To further evaluate general utility of the compounds identified in the HA yield studies, one of the lead compounds, BYF589, was tested on recombinant protein expression using heterologous cells. In particular, proteins that had been previously found to be difficult to express in HEK293 cells were included, which are referred to as “low yielders.” In a typical optimized system, low yielders are defined as having a yield of 5 mg/L or less. About 20 constructs of target proteins with typical yields of between 2-10 mg/L were selected for the experiments. They are secreted mammalian proteins, which are truncated versions of full length counterparts. Each construct (in a variant of the pRS5a vector) contained at least one tag (e.g., at least a C-terminal FlagHis tag—in addition, many are fused N- or C-terminally to mouse IgG1 Fc). Roughly equal numbers of each tag type were selected to reduce bias.
All targets with yields <1 mg/L or >10 mg/L were removed. Next, targets were sorted by tag type. Finally, if it looked like a particular molecular weight range was heavily represented, a few “duplicates” were culled. Then, to select samples, first 6-7 from each tag type were included without additional selection criteria. Resulting target list is reproduced below.
The BYF589 compound was dissolved in DMSO to finally provide a 70 μM working stock (1000×). […]

[9] = test system: H3N2 strain; experiment: Additional SAR studies, 10 ml viral cultures; format: cell-based, influenza H3N2; conditions: 0.05 uM
Protocol: Additional SAR studies were carried out to further identify candidate compounds to increase yields. 165 analogs tested at 0.05 uM in 10 ml viral cultures with a H3N2 strain. BYF589 enhanced yield over no-compound (DMSO) control by ˜2 fold. 14 of the 165 screened were as good as or better in enhancing HA yields than BYF589 at the concentration tested.

O=C(O)C[C@H](O)C[C@H](O)/C=C/c1c(C2CC2)nc2ccccc2c1-c1ccc(F)cc1 [Compound G, (3R, 5S, 6E)-7-[2-cyclopropyl-4-(4-fluorophenyl)-quinolin-3-yl)-3,5-dihydroxyhept-6-enoic acid]
increase in HA yield [1]: 3 fold
delay time of gene induction (measured at peak) ([2]; both genes, versus absence of compound): at least two hours
induction of IFNb and IP10 ([2]; virus-infected MDCK cells, preliminary qRT-PCR data): delayed/suppressed induction
HA yield enhancement in multiple strains and subtypes of influenza [3]: at least 2 fold
effectiveness in increasing protein production yield by concentration ([4]; 5 nM vs 50 nM vs 500 nM): more effective in increasing protein production yield at 5 nM than at 50 nM, which in turn was more effective than at 500 nM
increase in yield over no DMSO control ([4]; 0.005 μM, HA-HPLC): about 37%
HA yield before the decrease (earlier addition) [5]: about 20 μg/ml
HA yield, compound added 2 hours post infection [5]: about 5 μg/ml
loss of compound in media or media+MDCK cells [6]: No loss of compounds was observed
HA yield enhancement, high-expressing A strain [7]: but not a high-expressing H3N2 strain
increase in recombinant protein yield [8]: ≥ 1.5 fold
yield enhancement over no-compound (DMSO) control [9]: ~2 fold
